Literature values in patent US20130309325A1, “COMPOSITION AND METHOD FOR PROMOTING JOINT AND BONE HEALTH” (VITAL ANIMAL HEALTH, LLC, priority 2012, published 2013).

Tested on: young racing quarter horses
[1] = horses with increased plasma silicon concentrations

In the case of silicon, the average race times [1] is given as “faster average race times”, the “distance covered before injury” value [1] is given as “covered more distance before injury” and the “strides completed before injury” value [1] is given as “completed more strides before injury”. For the same substance, the “incidence of bone related injuries” value (supplemental silicon, young racing quarter horses) was “decreased the incidence of bone related injuries”.
